# Results: US9322034B2, “Compositions and methods for detecting and modulating cell death by a translation regulated gene expression system” (Wayne State University, priority 2007, dated 2016)
# Legend:
# Type in all cases: cell-based, human
# HEK293 cells = experiment: Trypan blue staining of HEK293 cells treated with toxic agents; conditions: 5-6.7 micromolar, within 24 hr
# [1] = tested on: HEK293 cell pools expressing the fLUC-TRplp-EYFP, fLUC-TRdm-EYFP, pcuLf-TRplp-EYFP or pcuLf-TRdm-EYFP expression cassettes; experiment: Cytotoxicity assay by Western blot, bicistronic TR cassettes; conditions: toxic doses
# [2] = tested on: HEK293 TRplp-fLUC and TRdm-fLUC subclones; experiment: Cytotoxicity assay by immunofluorescence of fLUC protein; conditions: 12 hr
# Source text: To examine TR-mediated translation from the TR-fLUC cassettes, the translated fLUC protein requires immunolabeling with fluorescent antibodies. In this study, HEK293 cells transformed with the CMV-fLUC, TRplp-fLUC or TRdm-fLUC expression cassettes are visualized following immunodetection of the fLUC protein using a primary anti-fLUC antibody (Sigma) and a species-specific rhodamine-labeled secondary antibody (Kirkegaard and Perry Laboratories, Inc.). DAPI labeling of nuclear DNA is a well known procedure in the art and was used to label nuclei.
# Forty hours prior to toxin exposure, 300,000 cells (HEK293, HEK293 CMV-fLUC, HEK293 TRplp-fLUC subclone #3, HEK293 TRplp-fLUC subclone #17, HEK293 TRdm-fLUC subclone #12, or HEK293 TRdm, fLUC subclone #45) were plated on flame sterilized glass coverslips in a 12-well tray. Cells are cultured in complete DMEM medium. Fresh medium supplemented with 6.7 micromolar calcium ionophore A23187 is applied and slides collected at 12 hr. […] After this, the coverslips are washed in 1×PBS, labeled with DAPI (30 sec, RT), washed in 1×PBS, and mounted for fluorescence microscopy.
# In untreated cell cultures, the frequency of fLUC-positive cells ranged from 2.4-7.2%, which is 1-3 times higher than the normal frequency of nonviable cells, as determined by Trypan blue staining. […]
# [3] = tested on: HEK293 TRplp-fLUC (subclone #3) and TRdm-fLUC (subclone #45) cells; experiment: Microplate reader dose response, lysed cell luciferase assay; conditions: 12 hr
# Description: For this example, HEK293 cells expressing the TRplp-EYFP, TRdm-EYFP, TRplp fLUC and TRdm-fLUC expression cassettes are evaluated using a microplate reader. To quantitate the TR translational response, 24,000 cells are plated in a 96-well microtiter plates and allowed to grow for about 40 hr to achieve the proper cell density prior to incubation with a toxic agent. Each well is cultured with complete DMEM medium containing either no toxin or a defined concentration of toxin and incubated at 37 C for specific time periods. At that time, fluorescence or chemiluminescence on a FLUOstar Optima (BMG Labtech) microplate reader is used measure TR-ORF response.
# For a lysed cell assay, cells are cultured as above, but in regular flat bottom 96-well trays. After toxin incubation, the 96-well plates are centrifuged as above. The media is removed, replaced with 50 microliters of Cell Lysis Buffer (25 mM Tris-phosphate (pH7.8), 10% glycerol, 1% TritonX-100, 1 mg/ml BSA, 2 mM EGTA and 2 mM DTT) and incubated for 10 min at RT. Cell lysis is verified using a phase contrast microscope, and the lysates transferred to a white bottom 96-well tray. Luminescence is developed by injection of 5 microliters of D-luciferin solution dissolved in Reaction Buffer (25 mM Glycylglycine (pH 7.8), 15 mM MgSO4, 4 mM EDTA, 15 mM Potassium phosphate, 1 mM DTT, 1 mM Coenzyme A, 6.7 mM ATP and 3.35 mM D-luciferin). After 4 sec with shaking, luminescence values were measured using the lens filter at gains of 2000-3000.
# Dose response assays are necessary to define toxic concentrations of candidate cytotoxic agents. To establish a TR-mediated cellular response and identify a TR effective dose, HEK293 cells transformed with the TRplp-fLUC (subclone #3) and TRdm-fLUC (subclone #45) expression cassettes are subjected to a range of subtoxic to toxic concentrations of the calcium ionophore A23187 (0, 1 nM, 10 nM, 100 nM, 1 μM, 2 μM, 4 μM, 6 μM, 8 μM, 10 μM) for 12 hr and analyzed as described above using a lysed cell luciferase assay (FIG. 10).
# [4] = tested on: HEK293 cells transduced with rBAC TRplp-EYFP / TRdm-EYFP; experiment: TR-EYFP translation after rBAC transduction; conditions: 5 μM, 24 hr
# Description: This example is to show delivery of the TRplp-EYFP and TRdm-EYFP cassettes to HEK293 cells using rBAC transduction. HEK293 cells are plated on flame sterilized glass slides and grown until 60-70% confluent (1-2 days), washed with serum-free DMEM, and infected with rBAC for 1-2 hr. The medium is replaced with DMEM, 10% FBS and the cells incubated for 24 hours. Infected cells were treated with DMEM, 10% FBS supplemented with 5 μM calcium ionophore A23187 for 24 hr prior to direct microscopic examination.
# [5] = tested on: HT1080 cells transduced with rBAC-TRdm-EYFP virions; experiment: Cytotoxic event assay using rBAC-TRdm-EYFP gene delivery, fluorescence microscopy; conditions: 5 μM
# Description: HT1080 cells are plated in 6-well trays and allowed to grow until 70-80% confluent. Two sets of HT1080 cells are transduced with rBAC-TRdm-EYFP virions (multiplicity of infection of 10 pfu/cell and 25 pfu/cell) for 24 hr and then treated with medium containing 5 μM calcium ionophore A23187 for 13.5 hr and 23 hr. At this time, untreated and treated cells are processed and examined by fluorescence microscopic analysis as described above.
smiles,measurement,setting,value
CNc1ccc2oc(C[C@H]3O[C@@]4(CC[C@H]3C)O[C@H]([C@H](C)C(=O)c3ccc[nH]3)[C@H](C)C[C@H]4C)nc2c1C(=O)O [calcium ionophore A23187],cell death in HEK293 cells as determined by Trypan blue staining,HEK293 cells,complete cell death
same,"EYFP translation in cell pools expressing the bicistronic TR cassettes (Western blot, FIG. 4)",[1],induce EYFP translation
same,increase in number of fLUC positive cells compared to untreated samples,"[2]; HEK293 TRdm-fLUC subclone #12, 6.7 micromolar",3640%
same,increase in number of fLUC positive cells compared to untreated samples,"[2]; HEK293 TRdm-fLUC subclone #45, 6.7 micromolar",1440%
same,fLuc activity at the 8-10 μM toxin concentrations,[3]; 8-10 μM,decline in fLuc activity
same,concentration of peak in fLUC values,[3]; raw luciferase numbers,6 µM
same,concentration at which TR-mediated translation is initially detected,"[3]; raw luciferase numbers, each cassette",1 µM
same,TR-specific translational activity at lower subtoxic doses,"[3]; below 1 μM (1 nM, 10 nM, 100 nM)",no apparent TR-specific translational activity
same,translation of EYFP in rBAC transduced cells compared to uninfected control cells,[4],exhibit selective translation of the fluorescent EYFP protein
same,increase in EYFP positive cells compared to infected but untreated cell samples,"[5]; 13.5 hr, 10 pfu/cell",3344%
same,increase in EYFP positive cells compared to infected but untreated cell samples,"[5]; 13.5 hr, 25 pfu/cell",4925%
same,decrease in the number of attached cells,[5]; 23 hr,more than 50%
same,increase in EYFP positive cells compared to infected but untreated cell samples,"[5]; 23 hr, 10 pfu/cell",725%
same,increase in EYFP positive cells compared to infected but untreated cell samples,"[5]; 23 hr, 25 pfu/cell",875%
